Measured values: patent US20150150843A1, “CARDIOPROTECTIVE COMPOUNDS, THEIR USE WITH CHEMOTHERAPY, AND METHODS FOR IDENTIFYING THEM” (priority 2012, published 2015)
Marks after values point to notes of the source that are not given here.

How the values were obtained:
zebrafish heart = test: Doxorubicin-induced heart failure model in zebrafish (heart contraction, tail circulation, morphology, fractional shortening); type: in vivo
Experimental: For screening, about 400 nl of small molecule stock solution was transferred from 96-well format library plates to fish plate with transfer pins. At dpf 3, treated fish were screened under inverted fluorescent microscope (100×) for heart contraction and tail circulation.
Zebrafish have been used successfully for high-throughput screening (HTS) to identify chemical compounds that suppress genetic defects and other disease states (Peterson et al., Methods Cell. Biol. 105, 525-541, 2011). Compared to cell-based in vitro systems, in vivo screening offers several advantages, including the ability to discover compounds with therapeutic activity even without knowing their molecular targets. In addition, compounds discovered by in vivo screening are selected for their ability to be effective in the complex context of the disease of interest. […] Heart contraction was dramatically compromised, resulting in the absence of blood cell circulation within tail blood vessels. Using a high-speed camera and a custom analysis algorithm, we were able to calculate the fractional shortening of the zebrafish hearts. […] Therefore, the zebrafish model appears to recapitulate several key aspects of the doxorubicin-induced heart failure seen in humans, including increased apoptosis and reduced contractility. Because the doxorubicin-induced changes in cardiac function and blood circulation are easily detected visually, they formed the basis of an assay to identify small molecules suppressing doxorubicin-induced cardiotoxicity.
Hearts were surgically removed and briefly fixed with 4% paraformaldehyde (PFA) for 20 minutes at room temperature. The fixed heart samples were embedded in mounting medium and flattened with slide and coverslip. Confocal images were captured from the flattened hearts, and red nuclei were counted. All experiments were done at least three times, and the statistics were obtained by Student T-test.
In order to confirm and quantify the activity of compounds with cardioprotective properties identified in the preceding assays, a high-resolution assay of cardiac function, described by Shin et al. (Physiol Genomics. 2010 July; 42(2): 300-309), can be used to measure heart fractional shortening.

zebrafish cardiomyocytes = test: TUNEL staining of apoptotic cardiomyocytes in doxorubicin-treated zebrafish; type: in vivo
Experimental: Because cardiomyocyte apoptosis plays a critical role in mediating doxorubicin-induced cardiomyopathy, we sought to determine if VIS Aand DPU attenuate heart failure by inhibiting cardiomyocyte apoptosis.
Hearts were surgically removed and fixed with 4% paraformaldehyde (PFA) for 20 minutes at room temperature. After staining with an in situ TUNEL kit (Roche), heart samples were embedded in mounting medium and flattened with slide and coverslip, and then subjected to confocal microscopy. The data were quantified as percentage of TUNEL positive cardiomyocytes. All experiments were done at least three times, and the statistics were obtained by Student T-test.

mouse cardiac sections = test: TUNEL apoptosis assay in hearts of doxorubicin-treated mice; type: in vivo; settings: one day
Experimental: To determine if the ability of VIS and DPU to protect cardiomyocytes from apoptosis was conserved in mammals, we treated mice with doxorubicin with or without co-treatment with VIS or DPU. One day later, hearts were collected for apoptosis assays using TUNEL (Supplement FIG. 1b). […] Therefore, VIS and DPU appear to prevent doxorubicin-induced cardiac apoptosis in both zebrafish and mice.
One day after injection, hearts were collected and fixed with 4% PFA at 4° C. overnight and then were subjected to paraffin embedding and sectioning. The heart sections were stained using the TMR TUNEL kit (Roche) following the manufacturer's protocol. The stained sections were scanned with MetaMorph-assisted slide scanning microscopy, and apoptosis indices were quantified as TUNEL positive cell/mm^2. All experiments were done at least three times, and the statistics were obtained by Student T-test.

[1] = test system: neonatal rat cardiomyoyte; test: Doxorubicin-induced apoptosis in neonatal rat cardiomyocyte; type: cell-based
cardiomyoyte HL1 = test: AnnexinV apoptosis assay in cardiomyocyte HL1; type: cell-based, mouse
Experimental: (§1) Cardiomyocyte line HL-1 was derived from mouse atrium tumor. Culturing conditions were previously published (Claycomb et al., Proc. Natl. Acad. Sci. USA, 95, 2979, 1998). HL 1 was cultured with Claycomb medium (Sigma) supplemented with fetal bovine serum (FBS), penicillin/streptomycin, L-glutamine and norepinephrine. DU145 and LNCaP are human prostate tumor lines, while MCF7 is a human breast cancer line. DU145 and MCF7 were cultured with high glucose DMEM (Life Sciences) supplemented with penicillin/streptomycin and L-glutamine, and LNCaP was grown in RPMI-1640 (Life Sciences) plus penicillin/streptomycin and L-glutamine. […] Apoptosis indices were quantified as percentage of AnnexinV positive cells. All experiments were done at least three times, and the statistics were obtained by Student T-test.

tumor line DU145 = test: Doxorubicin-induced apoptosis in tumor line DU145; type: cell-based, human
Experimental: as §1

tumor line LNCaP = test: Doxorubicin-induced apoptosis in tumor line LNCaP; type: cell-based, human
Experimental: as §1

tumor line MCF7 = test: Doxorubicin-induced apoptosis in tumor line MCF7; type: cell-based, human
Experimental: as §1

cardiomyocyte HL1 = test: CellTiter Glo viability of doxorubicin-treated HL1; type: cell-based, mouse; settings: VIS and DPU at 20 μM
Experimental: (§2) Cardiomyocyte line HL-1 was derived from mouse atrium tumor. Culturing conditions were previously published (Claycomb et al., Proc. Natl. Acad. Sci. USA, 95, 2979, 1998). HL 1 was cultured with Claycomb medium (Sigma) supplemented with fetal bovine serum (FBS), penicillin/streptomycin, L-glutamine and norepinephrine. DU145 and LNCaP are human prostate tumor lines, while MCF7 is a human breast cancer line. DU145 and MCF7 were cultured with high glucose DMEM (Life Sciences) supplemented with penicillin/streptomycin and L-glutamine, and LNCaP was grown in RPMI-1640 (Life Sciences) plus penicillin/streptomycin and L-glutamine. […] All experiments were done at least three times, and the statistics were obtained by Student T-test.

[2] = test system: prostate tumor cell DU145; test: CellTiter Glo viability of doxorubicin-treated DU145; type: cell-based, human; settings: VIS and DPU at 20 μM
Experimental: as §2

[3] = test system: caspases 3, 8 and 9 in cardiomyocyte; test: Caspase 3, 8 and 9 activity (fluorogenic substrates) in cardiomyocyte; type: cell-based
Experimental: We also examined effects of the compounds on apoptosis (via TUNEL staining) in cardiomyocytes and tumor cells.
Specific activity of caspases 3, 8 and 9 were assessed semi-quantitatively using the corresponding fluorogenic substrates following manufacturer's protocols (R&D Systems). All experiments were done at least three times, and the statistics were obtained by Student T-test.

[4] = test system: JNK phosphorylation in HL 1 cells; test: JNK phosphorylation western blot in HL 1 cells; type: cell-based, mouse
Text: (§3) In an effort to identify pathways involved in VIS and DPU mediated cardioprotection, we screened a panel of kinases by western blotting. […] To confirm the cardiomyocyte-specific inhibition of JNK signaling, we used a luciferase-based AP1 reporter assay to detect JNK activation in HL 1 and DU145 cells.
Blots were quantified by densitometry with Image J. All experiments were done at least three times, and the statistics were obtained by Student T-test.

[5] = test system: JNK phosphorylation in DU145 cells; test: JNK phosphorylation western blot in DU145 cells; type: cell-based, human
Text: as §3

[6] = test system: JNK responsive reporter AP-1 in HL 1 cells; test: AP-1 luciferase reporter assay in HL 1 cells; type: cell-based, mouse; settings: doxorubicin-treated
Text: as §3

[7] = test system: JNK responsive reporter AP-1 in DU145 cells; test: AP-1 luciferase reporter assay in DU145 cells; type: cell-based, human; settings: doxorubicin-treated
Text: as §3

mouse heart function [8] = test: Acute doxorubicin-induced HF model in mice, echocardiography; type: in vivo; settings: five days
Experimental: Five days after the initial injection, we assessed heart function by M mode echocardiogram.
Strain C57BL/6 male mice between 8-10 weeks of age were purchased from Charles River Laboratories. […] In the control group, plain vehicle and saline were injected instead. Five days later, injected mice were subjected to echocardiography. Five days after treatment, transthoracic echocardiographic images were obtained and interpreted by an echocardiographer blinded to the experimental design using a 13.0-MHz linear probe (Vivid 7; GE Medical System, Milwaukee, Wis.) as described (Zou et al., Crit. Care Med. 38, 1335-1342, 2010; Neilan et al., Eur. Heart J. 27, 1868-1875, 2006). Mice were lightly anesthetized with ketamine (20 mg/kg). M-mode images were obtained from a parasternal short-axis view at the midventricular level with a clear view of papillary muscle. Tissue Doppler imaging was collected at a frame rate of 483 frames per second and a depth of 1 em. LV end-diastolic internal diameter (LVIDd) and LV end systolic internal diameter (LVIDS) were measured. Fractional shortening (FS) was defined as [(LVIDd−LVIDS)/LVIDd]. Strain rate of the posterior wall was analyzed offline in an EchoPAC workstation (GE Healthcare, Wauwatosa, Wis.). A region of interest (axial distance, 0.2 mm; width, 0.6 mm) was manually positioned in the middle of the posterior wall. A strain length of 0.5 mm was used. Peak systolic strain rate was measured. The temporal smoothing filters were turned off for all measurements. The values of three consecutive cardiac cycles were averaged.

mouse heart function [9] = test: Chronic low-dose doxorubicin treatment in mice, echocardiography; type: in vivo; settings: low doses of doxorubicin 5 times over 5 weeks
Text: Labels: DMSO: DMSO-treated control samples; Dox: doxorubicin-treated samples; Dox+VIS: doxorubicin and VIS co-treated samples; Dox+DPU: doxorubicin and DPU co-treated samples.

[10] = patients; cited from earlier work
[11] = zebrafish treated with doxorubicin
[12] = mice, 15 mg/kg doxorubicin IP, with or without 25 mg/kg VIS IP, mean ± SEM

COc1c2ccoc2cc2oc(C)cc(=O)c12 [VIS, visnagin]
cardiac contractility as measured by fractional shortening (zebrafish heart; [11]): completely rescued cardiac contractility
overt morphological effects of doxorubicin on the heart (ventricular compaction, pericardial edema) (zebrafish heart; [11]): prevented the overt morphological effects of doxorubicin on the heart
number of apoptotic cardiomyocytes induced by doxorubicin (TUNEL) (zebrafish cardiomyocytes; 100 μM doxorubicin plus 20 μM rescue compound, two days): greatly reduced the number of apoptotic cardiomyocytes
doxorubicin-induced apoptosis in mouse heart (TUNEL) (mouse cardiac sections; 15 mg/kg doxorubicin plus 25 mg/kg visnagin or 10 mg/kg diphenylurea IP): significantly decreased doxorubicin-induced apoptosis
doxorubicin-induced apoptosis, AnnexinV staining [1]: inhibit doxorubicin-induced apoptosis
doxorubicin-induced apoptosis, TUNEL staining [1]: inhibit doxorubicin-induced apoptosis
doxorubicin-induced apoptosis, AnnexinV staining (cardiomyoyte HL1): reduce doxorubicin-induced apoptosis
doxorubicin-induced apoptosis (tumor line DU145): do not reduce doxorubicin-induced apoptosis
doxorubicin-induced apoptosis (tumor line LNCaP): do not reduce doxorubicin-induced apoptosis
doxorubicin-induced apoptosis (tumor line MCF7): do not reduce doxorubicin-induced apoptosis
viability of doxorubicin-treated cardiomyocyte HL1 (cardiomyocyte HL1): increase viability
viability of doxorubicin-treated prostate tumor cell DU145 [2]: do not increase viability
activity of caspases 3, 8 and 9 activated by doxorubicin [3]: inhibited
doxorubicin-induced JNK phosphorylation [4]: inhibit doxorubicin-induced JNK phosphorylation
doxorubicin-induced JNK phosphorylation [5]: do not inhibit doxorubicin-induced JNK phosphorylation
AP-1 luciferase activity [6]: repressed
AP-1 luciferase activity [7]: not repressed
fractional shortening and strain rate compared to mice treated with doxorubicin alone (mouse heart function [8]; 25 mg/kg VIS immediately prior to 15 mg/kg doxorubicin IP): significant improvement
doxorubicin-induced reduction of fractional shortening (mouse heart function [9]): partially reversed the reduction
doxorubicin-induced reduction of strain rate (mouse heart function [9]): partially reversed the reduction

COc1cccc2c1C(=O)c1c(O)c3c(c(O)c1C2=O)C[C@@](O)(C(=O)CO)C[C@@H]3O[C@H]1C[C@H](N)[C@H](O)[C@H](C)O1 [doxorubicin]
atrium and ventricle cardiomyocyte numbers compared to controls (zebrafish heart; 100 μM doxorubicin for two days, cmlc2-dsRed line): significantly reduced
heart rate and contractility (zebrafish heart; 100 μM doxorubicin from 1 dpf, assessed at 3 dpf): dramatically reduced
pericardial edema (zebrafish heart; 100 μM doxorubicin from 1 dpf, two days exposure): extensive pericardial edema
increase in apoptotic cardiomyocytes (TUNEL) (zebrafish cardiomyocytes; doxorubicin 100 μM, 4 dpf zebrafish): four-fold increase
increase in apoptosis in mouse cardiac sections (TUNEL) (mouse cardiac sections; 15 mg/kg doxorubicin IP): 3- to 4 fold
FS (mouse heart function [8]; [12]): 44 ± 2 %
HR (mouse heart function [8]; [12]): 609 ± 23 beats/min
LVIDs (mouse heart function [8]; [12]): 1.78 ± 0.10 mm
Strain Rate (mouse heart function [8]; [12]): 16 ± 1*** 1/sec
cumulative dosages that exponentially increase the risk of heart failure [10]: above 450 mg/m^2
